Data reported in US7384934B2, “Piperazine substituted aryl benzodiazepines” (Eli Lilly and Company, priority 2002, dated 2008).
Structures can show the parent of a compound that is named as a salt.

The compounds below were run against T1, Dopamine D2 receptor (Homo sapiens, UniProt P14416) (assay: Dopamine D2 receptor binding assay ([125I]iodospiperone)). Details: relative Ki scale of Table 5; read-out: Relative D2 Receptor Binding Affinity Ki.
T1 construct: purchased Receptor Biology (now owned by NEN) RBHD2CM
T1 sequence (P14416 1-414 isoform P14416-2): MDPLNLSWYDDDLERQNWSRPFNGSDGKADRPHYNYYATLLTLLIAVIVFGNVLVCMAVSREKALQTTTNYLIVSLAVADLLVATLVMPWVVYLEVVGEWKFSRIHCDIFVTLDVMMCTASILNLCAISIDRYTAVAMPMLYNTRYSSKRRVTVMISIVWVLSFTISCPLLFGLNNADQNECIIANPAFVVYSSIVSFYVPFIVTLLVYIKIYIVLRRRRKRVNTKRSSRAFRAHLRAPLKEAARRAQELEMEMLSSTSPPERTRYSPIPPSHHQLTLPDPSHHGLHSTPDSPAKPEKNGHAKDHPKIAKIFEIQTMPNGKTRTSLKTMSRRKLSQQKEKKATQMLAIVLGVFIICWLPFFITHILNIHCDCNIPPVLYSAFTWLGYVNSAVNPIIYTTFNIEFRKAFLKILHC
Method: The assay buffers used are 50 mM Tris-HCl pH 7.4, 120 mM NaCl, 5 mM KCl, 5 mM MgCl2, 1 mM EDTA for the Dopamine D2s receptor binding assay. […] The membranes used are from Receptor Biology (now owned by NEN), Cat # RBHD2CM for the D2 receptor.
Compounds are obtained as 10 mM stocks in 100% DMSO. They are diluted to 1 mM in 100% DMSO by adding 180 μL DMSO to 20 μL of stock in 96 well plates using a multidrop. […] This is done using a TECAN robot.
The radioligand is diluted in assay buffer to provide 0.1 nM for the D2 assay. Each vial of membranes is diluted up to 92 mL in assay buffer. The final assay volume is 250 μL consisting of 210 μl of diluted membranes, 20 μL of compound or 10% DMSO for total binding, and 20 μL of diluted radioligand. The compounds are transferred from drug dilution plates into coming 96 well assay plates using a 96 well Multimek pipettor. Radioligand and membranes are added to assay plates using multidrop pipettors. Non-specific binding is determined in wells containing a final concentration of 5 μM haloperidol. The final drug concentration range in half logs is from 10 μM down to 0.1 nM.
After addition of drug, membrane, and ligand, the plates are incubated for 2 hours at room temperature. During this time 96 well Millipore filter plates (MAFBNOB50) are soaked for a least 30 minutes with 200 μL per well of 0.5% polyethyleneimine.
The 0.5% PEI is removed from filterplate wells using a TiterTek MAP aspirator and 200 μL of the incubation mixture is transferred from the incubation plate to the filterplate after mixing. This transfer is done using the 96 tip Mutimek pipettor. After transfer to the filterplate filterplates are extracted and ished twice with 220 μL per well of cold buffer on the MAP aspirator. The peel away bottoms are removed from the filterplates and 60 μL per well of microscint 20 scintillation fluid is added per well using a multidrop. […]
`CCCCc1nc2c(s1)Nc1ccccc1N=C2N1CCN(C)[C@@H](CCOC)C1` [Example 324, (S)-10-[3-(2-Methoxy-ethyl)-4-methyl-piperazin-1-yl]-2-butyl 4H-3-thia-1,4,9-triaza-benzo[f]azulene] showed a Ki of 10 to 100 nM. For `CCCN1CCN(C2=Nc3ccccc3Nc3sc(C(C)C)nc32)C[C@@H]1CCOC` [Example 341, (S)-10-[3-(2-Methoxyethyl)-4-propylpiperazin-1-yl]-2-isopropyl-4H-3-thia-1,4,9-triazabenzo[f]azulene dihydrochloride], the Ki was 10 to 100 nM. Compound `COCC[C@H]1CN(C2=Nc3ccccc3Nc3sc(C(C)C)nc32)CCN1CCOC` [Example 343, (S)-10-[3,4-Bis(2-methoxyethyl)piperazin-11-yl]-2-isopropyl-4H-3-thia-1,4,9-triazabenzo[f]azulene dihydrochloride] has a Ki of 100 to 1000 nM. `CCc1nc2c(s1)Nc1ccccc1N=C2N1CCN(C)[C@@H](CCOC)C1` [Example 322, (S)-10-[3-(2-Methoxy-ethyl)-4-methyl-piperazin-1-yl]-2-ethyl-4H-3-thia-1,49-triaza-benzo[f]azulene dihydrochloride] was tested, and the Ki was 10 to 100 nM. For `COCC[C@H]1CN(C2=Nc3ccccc3Nc3sc(C(F)(F)F)nc32)CCN1CCCF` [Example 351, (S)-10-[4-(3-Fluoro-propyl)-3-(2-methoxy-ethyl)-piperazin-1-yl]-2-trifluoromethyl-4H-3-thia-1,4,9-triaza-benzo[f]azulene], the Ki was 10 to 100 nM. With `COCC[C@H]1CN(C2=Nc3ccccc3Nc3sc(C)cc32)CCN1` [Example 242, (S)-10-[3-(2-Methoxyethyl)-piperazin-1-yl]-2-methyl-4H-3-thia-4,9-diazabenzo[f]azulene hydrochloride] the Ki was 10 to 100 nM. `CC(C)c1nc2c(s1)Nc1ccccc1N=C2N1CCN(C)[C@@H](CCO)C1` [Example 326, (S)-2-[4-(2-Isopropyl-4H-3-thia-1,49-triazabenzo[f]azulene-10-yl)-1-methylpiperazin-2-yl]ethanol] gave a Ki of less than 10 nM. `CCOCC[C@H]1CN(C2=Nc3ccccc3Nc3sc(C(C)C)nc32)CCN1C` [Example 328, (S)-10-[3-(2-Ethoxyethyl)-4-methylpiperazin-1-yl]-2-isopropyl-4H-3-thia-1,4,9-triazabenzo[f]azulene dihydrochloride] was tested, and the Ki was 10 to 100 nM. `CCN1CCN(C2=Nc3ccccc3Nc3sc(C(C)C)nc32)C[C@@H]1CCOC` [Example 340, (S)-10-[4-Ethyl-3-(2-methoxyethyl)piperazin-1-yl]-2-isopropyl-4H-3-thia-1,4,9-triazabenzo[f]azulene dihydrochloride] was tested, and the Ki was 10 to 100 nM. Work on `COCC[C@H]1CN(C2=Nc3ccccc3Nc3sc(C(F)(F)F)nc32)CCN1CCOCCO` [Example 357] yielded a Ki of 10 to 100 nM. In the case of `COCC[C@H]1CN(C2=Nc3ccccc3Nc3sc(C)nc32)CCN1C` [Example 320, (S)-10-[3-(2-Methoxyethyl)-4-methylpiperazin-1-yl]-2-methyl-4H-3-thia-1,4,9-triazabenzo[f]azulene dihydrochloride], the Ki is reported as 10 to 100 nM. For `CCN1CCN(C2=Nc3ccccc3Nc3sc(C(F)(F)F)nc32)C[C@@H]1CCOC` [Example 344, (S)-10-[4-Ethyl-3-(2-methoxy-ethyl)-piperazin-1-yl]-2-trifluoromethyl-4H-3-thia-1,4,9-triaza-benzo[f]azulene], the Ki was less than 10 nM. `COCC[C@H]1CN(C2=Nc3ccccc3Nc3sc(C(C)C)nc32)CCN1CCO` [Example 342, (S)-2-[4-(2-Isopropyl-4H-3-thia-1,4,9-triazabenzo[f]azulene-10-yl)-2-(2-methoxyethyl)piperazin-1-yl]ethanol dihydrochloride] was tested, and the Ki was 10 to 100 nM. `COC(C)C[C@H]1CN(C2=Nc3ccccc3Nc3sc(C(C)C)nc32)CCN1` (mixture of isomers) [Example 361, 10-[3(S)-(2(S)-Methoxy-propyl)-piperazin-1-yl]-2-isopropyl-4H-3-thia-1,4,9-triazabenzo[f]azulene and 10-[3(S)-(2(R)-Methoxy-propyl)-piperazin-1-yl]-2-isopropyl-4H-3-thia-1,4,9-triazabenzo[f]azulene] gave a Ki of less than 10 nM. Compound `CCCc1nc2c(s1)Nc1ccccc1N=C2N1CCN(C)[C@@H](CCOC)C1` [Example 323, (S)-10-[3-(2-Methoxy-ethyl)-4-methyl-piperazin-1-yl]-2-propyl 4H-3-thia-1,4,9-triaza-benzo[f]azulene dihydrochloride] has a Ki of 10 to 100 nM. For `CC(C)c1nc2c(s1)Nc1ccccc1N=C2N1CCN(C)[C@@H](CC(C)(C)O)C1` [Example 368, (S)-1-[4-(2-Isopropyl-4H-3-thia-1,4,9-triazabenzo[f]azulene-10-yl)-1-methylpiperazin-2-yl]-2-methyl-propan-2-ol dihydrochloride], the Ki was less than 10 nM. Work on `COCC[C@H]1CN(C2=Nc3ccccc3Nc3sc(C)cc32)CCN1C` [Example 267, (s)-10-[3-(2-Methoxyethyl)-4-methylpiperazin-1-yl]-2-methyl-4H-3-thia-4,9-diazabenzo[f]azulene dihydrochloride] yielded a Ki of 10 to 100 nM. With `CCc1nc2c(s1)Nc1ccccc1N=C2N1CCN[C@@H](CCOC)C1` [Example 303, (S)-10-[3-(2-Methoxy-ethyl)-piperazin-1-yl]-2-ethyl-4H-3-thia-1,4,9-triaza-benzo[f]azulene] the Ki was less than 10 nM. `COC(C)C[C@H]1CN(C2=Nc3ccccc3Nc3sc(C)cc32)CCN1` (mixture of isomers) [Example 359, 10-[3(S)-(2(S)-Methoxypropyl)-piperazin-1-yl]-2-methyl-4H-3-thia-4,9-diazabenzo[f]azulene and 10-[3(S)-(2(R)-Methoxypropyl)-piperazin-1-yl]-2-methyl-4H-3-thia-4,9-diazabenzo[f]azulene] showed a Ki of 10 to 100 nM. `COCC[C@H]1CN(C2=Nc3ccccc3Nc3sc(CCC(F)(F)F)nc32)CCN1` [Example 318, (S)-10-[3-(2-Methoxy-ethyl)-piperazin-1-yl]-2-(3,3,3-trifluoro-propyl)-4H-3-thia-1,4,9-triaza-benzo[f]azulene dihydrochloride] was tested, and the Ki was less than 10 nM. With `Cc1nc2c(s1)Nc1ccccc1N=C2N1CCN(C)[C@@H](CCO)C1` [Example 319, (S)-2-[1-Methyl-4-(2-methyl-4H-3-thia-1,4,9-triazabenzo[f]azulene-10-yl)piperazin-2-yl]ethanol dihydrochloride] the Ki was 10 to 100 nM. For `COCC[C@H]1CN(C2=Nc3ccccc3Nc3sc(CCC(F)(F)F)nc32)CCN1C` [Example 338, (S)-10-[3-(2-Methoxy-ethyl)-4-methyl-piperazin-1-yl]-2-(3,3,3-trifluoro-propyl)-4H-3-thia-1,4,9-triaza-benzo[f]azulene dihydrochloride], the Ki was 10 to 100 nM. `CCOCC[C@H]1CN(C2=Nc3ccccc3Nc3sc(C)nc32)CCN1C` [Example 321, (S)-10-[3-(2-Ethoxyethyl)-4-methyl-piperazin-1-yl]-2-methyl-4H-3-thia-1,4,9-triazabenzo[f]azulene dihydrochloride] was tested, and the Ki was 100 to 1000 nM. Compound `COCC[C@H]1CN(C2=Nc3ccccc3Nc3sc(C(C)C)nc32)CCN1C1CC1` [Example 339, (S)-10-[4-Cyclopropyl-3-(2-methoxyethyl)piperazin-1-yl]-2-isopropyl-4H-3-thia-1,4,9-triazabenzo[f]azulene dihydrochloride] has a Ki of 10 to 100 nM. Compound `CCOCC[C@H]1CN(C2=Nc3ccccc3Nc3sc(C)cc32)CCN1C` [Example 268, (S)-10-[3-(2-Ethoxyethyl)-4-methyl-piperazin-1-yl]-2-methyl-4H-3-thia-4,9-diazabenzo[f]azulene dihydrochloride] has a Ki of 10 to 100 nM. Work on `Cc1cc2c(s1)Nc1ccccc1N=C2N1CCN[C@@H](CC(C)(C)O)C1` [Example 369, (S)-2-Methyl-1-[4-(2-methyl-4H-3-thia-4,9-diaza-benzo[f]azulen-10-yl)piperazin-2-yl]-propan-2-ol] yielded a Ki of 100 to 1000 nM. With `CCCN1CCN(C2=Nc3ccccc3Nc3sc(C(F)(F)F)nc32)C[C@@H]1CCOC` [Example 346, (S)-10-[3-(2-Methoxy-ethyl)-4-propyl-piperazin-1-yl]-2-trifluoromethyl-4H-3-thia-1,4,9-triaza-benzo[f]azulene] the Ki was less than 10 nM. Compound `CCCCc1nc2c(s1)Nc1ccccc1N=C2N1CCN[C@@H](CCOC)C1` [Example 305, (S)-10-[3-(2-Methoxy-ethyl)-piperazin-1-yl]-2-butyl-4H-3-thia-1,4,9-triaza-benzo[f]azulene] has a Ki of 10 to 100 nM. For `COCC[C@H]1CN(C2=Nc3ccccc3Nc3sc(C(F)(F)F)nc32)CCN1` [Example 314, (S)-10-[3-(2-Methoxy-ethyl)-piperazin-1-yl]-2-trifluoromethyl-4H-3-thia-1,4,9-triaza-benzo[f]azulene], the Ki was less than 10 nM. `CCOCC[C@H]1CN(C2=Nc3ccccc3Nc3sc(C(C)C)nc32)CCN1` [Example 309, (S)-10-[3-(2-Ethoxyethyl)-piperazin-1-yl]-2-isopropyl-4H-3-thia-1,4,9-triazabenzo[f]azulene] gave a Ki of 10 to 100 nM.
